Data on one molecule can be found in patent US20230071978A1, “METHOD FOR TREATING IDH1 INHIBITOR-RESISTANT SUBJECTS” (Eli Lilly and Company, priority 2020, published 2023).

One assay addresses T1, IDH1R132L_D279N cis (Homo sapiens, UniProt O75874, D279N/R132L).
T1 construct: expressed in transfected cells; host or cells: U-87 MG (ATCC HTB-14)
Put plainly: 2-HG cell-based inhibition assay, U87MG IDH1R132L_D279N cis. Conditions: Cell line construct U87MG IDH1R132L_D279N cis; 2-HG by LC-MS. On the procedure: (§1) Compounds and Formulation. […] DMSO preps are further diluted with cell culture media prior to addition in the assay.
(§2) Cell lines. U-87 MG cells (ATCC, HTB-14) are cultured and assayed in MEM (Gibco, 11095) with 2 mM GlutaMAX (Gibco, 35050), 1 mM Pyruvate (Gibco, 11360), 0.1 mM NEAA ((Non-essential amino acid) Gibco, 11140) and 10% dialyzed FBS (Fetal bovine serum) (Gibco, 26400). Ba/F3 cells (DSMZ, ACC 300) are cultured and assayed in RPMI 1640 (Gibco, 22400) with 10% heat inactivated FBS (Gibco, 10082-147) and 10 ng/ml mouse IL3 (R&D systems, 403-ML-025).
(§3) Cell-based inhibition assays. Cell-based assays are performed by measuring 2-HG in either U-87 MG cells or Ba/F3 cells in which IDH mutations are expressed.
(§4) DNA constructs encoding IDH1 mutations are introduced into U-87 MG cells using transfection (Promega FuGENE HD, E2311) or lentiviral transduction, and the IDH-mutant expressing cell lines are selected using blasticidin (5 μg/ml) or puromycin (1 μg/ml). […]
(§5) LC-MS metabolite analysis of conditioned media and cell lysates. The effect of inhibitors on the concentrations of 2-HG are determined by liquid chromatography-mass spectrometry (LC-MS) analysis of cell lysates or conditioned media using either a derivatization method or an ion-pairing method as described below. […]

The target in another assay is T2, IDH1R132L_S280F cis (Homo sapiens, UniProt O75874, R132L/S280F).
T2 construct: expressed in transfected cells; host or cells: U-87 MG (ATCC HTB-14)
T2 sequence (O75874 whole entry R132L/S280F): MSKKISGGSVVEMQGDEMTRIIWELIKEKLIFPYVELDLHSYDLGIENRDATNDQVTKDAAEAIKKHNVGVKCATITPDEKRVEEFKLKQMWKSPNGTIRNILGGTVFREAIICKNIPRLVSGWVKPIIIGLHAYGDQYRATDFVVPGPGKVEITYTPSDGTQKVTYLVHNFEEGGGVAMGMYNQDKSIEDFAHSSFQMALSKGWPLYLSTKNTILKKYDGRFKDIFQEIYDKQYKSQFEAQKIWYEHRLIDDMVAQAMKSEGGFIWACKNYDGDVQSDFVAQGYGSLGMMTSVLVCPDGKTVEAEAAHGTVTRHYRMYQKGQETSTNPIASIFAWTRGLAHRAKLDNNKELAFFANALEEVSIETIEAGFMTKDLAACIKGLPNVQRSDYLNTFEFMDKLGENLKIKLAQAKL
Put plainly: 2-HG cell-based inhibition assay, U87MG IDH1R132L_S280F cis. The conditions noted are these: Cell line construct U87MG IDH1R132L_S280F cis; 2-HG by LC-MS. On the procedure: as §1, §2, §3, §4, §5

The next assay addresses T3, IDH1R132H_R119P cis (Homo sapiens, UniProt O75874, R119P/R132H).
T3 construct: expressed in transfected cells; host or cells: U-87 MG (ATCC HTB-14)
Description: 2-HG cell-based inhibition assay, U87MG IDH1R132H_R119P cis. The conditions noted are these: Cell line construct U87MG IDH1R132H_R119P cis; 2-HG by LC-MS. The procedure:
as §1, §2, §3, §4, §5

A further assay addresses T4, IDH1R132H_G131A cis (Homo sapiens, UniProt O75874, G131A/R132H).
T4 construct: expressed in transfected cells; host or cells: U-87 MG (ATCC HTB-14)
Description: 2-HG cell-based inhibition assay, U87MG IDH1R132H_G131A cis. The conditions noted are these: Cell line construct U87MG IDH1R132H_G131A cis; 2-HG by LC-MS. On the procedure: as §1, §2, §3, §4, §5

The target of another assay is T5, IDH1R132C_G289D cis (Homo sapiens, UniProt O75874, G289D/R132C).
T5 construct: expressed in transfected cells; host or cells: U-87 MG (ATCC HTB-14)
T5 sequence (O75874 whole entry R132C/G289D): as the sequence (O75874 whole entry R132L/S280F) above, with L132C, F280S, G289D counted along it
Put plainly: 2-HG cell-based inhibition assay, U87MG IDH1R132C_G289D cis. Conditions: Cell line construct U87MG IDH1R132C_G289D cis; 2-HG by LC-MS. On the procedure: as §1, §2, §3, §4, §5

The target in assay [1] is T6, R132H_S280F mutant IDH1 (Homo sapiens, UniProt O75874, R132H/S280F).
T6 construct: myc; expressed in transfected cells; host or cells: Ba/F3 (DSMZ ACC 300), stably transfected
T6 sequence (O75874 whole entry R132H/S280F): as the sequence (O75874 whole entry R132L/S280F) above, with L132H counted along it
Description: 2-HG cell-based inhibition assay, U87MG R132H_S280F. Conditions: Cell line construct U87MG R132H_S280F; 2-HG by LC-MS. On the procedure:
as §1, §2, §3, §4, §5

A further assay has as its target T7, IDH1R132L_G289D cis (Homo sapiens, UniProt O75874, G289D/R132L).
T7 construct: expressed in transfected cells; host or cells: U-87 MG (ATCC HTB-14)
Put plainly: 2-HG cell-based inhibition assay, U87MG IDH1R132L_G289D cis. Conditions: Cell line construct U87MG IDH1R132L_G289D cis; 2-HG by LC-MS. The procedure:
as §1, §2, §3, §4, §5

Assay [2] concerns the target T6, R132H_S280F mutant IDH1. Put plainly: 2-HG cell-based inhibition assay, Ba/F3 R132H_S280F. Conditions: Cell line construct Ba/F3 R132H_S280F; 2-HG in conditioned media by LC-MS.
A further assay addresses T8, IDH1R132L_H315D cis (Homo sapiens, UniProt O75874, H315D/R132L).
T8 construct: expressed in transfected cells; host or cells: U-87 MG (ATCC HTB-14)
Put plainly: 2-HG cell-based inhibition assay, U87MG IDH1R132L_H315D cis. Conditions: Cell line construct U87MG IDH1R132L_H315D cis; 2-HG by LC-MS. The procedure:
as §1, §2, §3, §4, §5

Assay [3] has as its target T9, R132C_S280F mutant IDH1 (Homo sapiens, UniProt O75874, R132C/S280F).
T9 construct: myc; expressed in transfected cells; host or cells: Ba/F3 (DSMZ ACC 300), stably transfected
Put plainly: 2-HG cell-based inhibition assay, Ba/F3 R132C_S280F. The conditions noted are these: Cell line construct Ba/F3 R132C_S280F; 2-HG in conditioned media by LC-MS.

The target in a further assay is T10, IDH1R132C_H315D cis (Homo sapiens, UniProt O75874, H315D/R132C).
T10 construct: expressed in transfected cells; host or cells: U-87 MG (ATCC HTB-14)
T10 sequence (O75874 whole entry R132C/H315D): as the sequence (O75874 whole entry R132L/S280F) above, with L132C, F280S, H315D counted along it
Put plainly: 2-HG cell-based inhibition assay, U87MG IDH1R132C_H315D cis. Conditions: Cell line construct U87MG IDH1R132C_H315D cis; 2-HG by LC-MS. The procedure: as §1, §2, §3, §4, §5

Assay [4] deals with T11, R132H mutant IDH1 (Homo sapiens, UniProt O75874, R132H).
T11 construct: myc; expressed in transfected cells; host or cells: Ba/F3 (DSMZ ACC 300), stably transfected
T11 sequence (O75874 whole entry R132H): as the sequence (O75874 whole entry R132L/S280F) above, with L132H, F280S counted along it
Description: 2-HG cell-based inhibition assay, U87MG R132H. Conditions: Cell line construct U87MG R132H; 2-HG by LC-MS. The procedure:
as §1, §2, §3, §4, §5

Another assay concerns the target T12, IDH1R132H_D279N cis (Homo sapiens, UniProt O75874, D279N/R132H).
T12 construct: expressed in transfected cells; host or cells: U-87 MG (ATCC HTB-14)
Put plainly: 2-HG cell-based inhibition assay, U87MG IDH1R132H_D279N cis. The conditions noted are these: Cell line construct U87MG IDH1R132H_D279N cis; 2-HG by LC-MS. The procedure: as §1, §2, §3, §4, §5

The target in the next assay is T13, IDH1R132L_R119P cis (Homo sapiens, UniProt O75874, R119P/R132L).
T13 construct: expressed in transfected cells; host or cells: U-87 MG (ATCC HTB-14)
T13 sequence (O75874 whole entry R119P/R132L): as the sequence (O75874 whole entry R132L/S280F) above, with R119P, F280S counted along it
Put plainly: 2-HG cell-based inhibition assay, U87MG IDH1R132L_R119P cis. Conditions: Cell line construct U87MG IDH1R132L_R119P cis; 2-HG by LC-MS. The procedure: as §1, §2, §3, §4, §5

For another assay, the target named is T14, IDH1R132C_D279N cis (Homo sapiens, UniProt O75874, D279N/R132C).
T14 construct: expressed in transfected cells; host or cells: U-87 MG (ATCC HTB-14)
T14 sequence (O75874 whole entry R132C/D279N): as the sequence (O75874 whole entry R132L/S280F) above, with L132C, D279N, F280S counted along it
Put plainly: 2-HG cell-based inhibition assay, U87MG IDH1R132C_D279N cis. Conditions: Cell line construct U87MG IDH1R132C_D279N cis; 2-HG by LC-MS. The procedure:
as §1, §2, §3, §4, §5

In another assay the target is T15, IDH1R132L_G131A cis (Homo sapiens, UniProt O75874, G131A/R132L).
T15 construct: expressed in transfected cells; host or cells: U-87 MG (ATCC HTB-14)
T15 sequence (O75874 whole entry G131A/R132L): as the sequence (O75874 whole entry R132L/S280F) above, with G131A, F280S counted along it
Description: 2-HG cell-based inhibition assay, U87MG IDH1R132L_G131A cis. Conditions: Cell line construct U87MG IDH1R132L_G131A cis; 2-HG by LC-MS. The procedure:
as §1, §2, §3, §4, §5

A further assay has as its target T16, IDH1R132C_G131A cis (Homo sapiens, UniProt O75874, G131A/R132C).
T16 construct: expressed in transfected cells; host or cells: U-87 MG (ATCC HTB-14)
Put plainly: 2-HG cell-based inhibition assay, U87MG IDH1R132C_G131A cis. The conditions noted are these: Cell line construct U87MG IDH1R132C_G131A cis; 2-HG by LC-MS. The procedure:
as §1, §2, §3, §4, §5

In assay [5] the target is T9, R132C_S280F mutant IDH1. Put plainly: 2-HG cell-based inhibition assay, U87MG R132C_S280F. The conditions noted are these: Cell line construct U87MG R132C_S280F; 2-HG by LC-MS. On the procedure:
as §1, §2, §3, §4, §5

Another assay addresses T17, IDH1R132C_R119P cis (Homo sapiens, UniProt O75874, R119P/R132C).
T17 construct: expressed in transfected cells; host or cells: U-87 MG (ATCC HTB-14)
Description: 2-HG cell-based inhibition assay, U87MG IDH1R132C_R119P cis. Conditions: Cell line construct U87MG IDH1R132C_R119P cis; 2-HG by LC-MS. The procedure:
as §1, §2, §3, §4, §5

A further assay deals with T18, IDH1R132H_H315D cis (Homo sapiens, UniProt O75874, H315D/R132H).
T18 construct: expressed in transfected cells; host or cells: U-87 MG (ATCC HTB-14)
T18 sequence (O75874 whole entry R132H/H315D): as the sequence (O75874 whole entry R132L/S280F) above, with L132H, F280S, H315D counted along it
Description: 2-HG cell-based inhibition assay, U87MG IDH1R132H_H315D cis. The conditions noted are these: Cell line construct U87MG IDH1R132H_H315D cis; 2-HG by LC-MS. The procedure:
as §1, §2, §3, §4, §5

The target in assay [6] is T11, R132H mutant IDH1. Description: 2-HG cell-based inhibition assay, Ba/F3 R132H. The conditions noted are these: Cell line construct Ba/F3 R132H; 2-HG in conditioned media by LC-MS. On the procedure: as §1, §3
Ba/F3 cells are transfected with DNA constructs encoding IDH1R132H-myc, IDH1R132H_S280E-myc, or IDH1R132C_S280E-myc constructs using NEON Transfection system (Life Technologies, MPK10025) and isolated using Puromycin (2 μg/mL) or Blasticidin (10 μg/mL). Stably transfected lines are used for inhibitor assays. […] Cells are treated with serial dilutions of the desired compounds in standard growth media. Plates are incubated in a mammalian cell culture incubator (humidified, 37° C., 5% CO2) for the desired time (72 or 96 hours). Following the incubation period, conditioned media from each well is collected for 2-HG analysis by LC-MS.
LC-MS metabolite analysis of conditioned media and cell lysates. The effect of inhibitors on the concentrations of 2-HG are determined by liquid chromatography-mass spectrometry (LC-MS) analysis of cell lysates or conditioned media using either a derivatization method or an ion-pairing method as described below.
For the derivatization LC-MS method, calibration curves are prepared by spiking 2-HG and α-KG into cell culture media and cell lysis buffer respectively. […]

T9 sequence (O75874 whole entry R132C/S280F): as the sequence (O75874 whole entry R132L/S280F) above, with L132C counted along it
T4 sequence (O75874 whole entry G131A/R132H): as the sequence (O75874 whole entry R132L/S280F) above, with G131A, L132H, F280S counted along it
T3 sequence (O75874 whole entry R119P/R132H): as the sequence (O75874 whole entry R132L/S280F) above, with R119P, L132H, F280S counted along it
T17 sequence (O75874 whole entry R119P/R132C): as the sequence (O75874 whole entry R132L/S280F) above, with R119P, L132C, F280S counted along it
T1 sequence (O75874 whole entry R132L/D279N): as the sequence (O75874 whole entry R132L/S280F) above, with D279N, F280S counted along it
T7 sequence (O75874 whole entry R132L/G289D): as the sequence (O75874 whole entry R132L/S280F) above, with F280S, G289D counted along it
T12 sequence (O75874 whole entry R132H/D279N): as the sequence (O75874 whole entry R132L/S280F) above, with L132H, D279N, F280S counted along it
T8 sequence (O75874 whole entry R132L/H315D): as the sequence (O75874 whole entry R132L/S280F) above, with F280S, H315D counted along it
T16 sequence (O75874 whole entry G131A/R132C): as the sequence (O75874 whole entry R132L/S280F) above, with G131A, L132C, F280S counted along it

For `C=CC(=O)N1CCN([C@@H](CC2CC2)c2ccc([C@H](C)Nc3ncc4c(n3)N(CC)C(=O)OC4)cc2)CC1` [Compound A, 7-[[(1S)-1-[4-[(1S)-2-cyclopropyl-1-(4-prop-2-enoylpiperazin-1-yl)ethyl]phenyl]ethyl]amino]-1-ethyl-4H-pyrimido[4,5-d][1,3]oxazin-2-one], the IC50 (in general, the midpoint of a concentration-inhibition curve) against IDH1R132L_D279N cis is 0.645 µM; at IDH1R132L_S280F cis it was 0.179 µM; on IDH1R132H_R119P cis, 0.00252 µM; on IDH1R132H_G131A cis, 0.00589 µM; on IDH1R132C_G289D cis, 0.0235 µM; at R132H_S280F mutant IDH1 [1] it was 0.00258 µM. In addition, the IC50 at IDH1R132L_G289D cis came out at 0.0294 µM; at R132H_S280F mutant IDH1 [2], 0.00113 µM; at IDH1R132L_H315D cis, 0.00507 µM; at R132C_S280F mutant IDH1 [3], 0.00153 µM; on IDH1R132C_H315D cis, 0.00133 µM; against R132H mutant IDH1 [4], 0.00032 µM. In addition, the IC50 was found to be 0.0138 µM at IDH1R132H_D279N cis; 0.0897 µM at IDH1R132L_R119P cis; 0.102 µM against IDH1R132C_D279N cis; 0.0645 µM against IDH1R132L_G131A cis; 0.0256 µM against IDH1R132C_G131A cis; 0.0125 µM at R132C_S280F mutant IDH1 [5]. Besides, the 50% inhibitory concentration (IC50) worked out at 0.0105 µM against IDH1R132C_R119P cis, 0.00149 µM at IDH1R132H_H315D cis and 0.00011 µM against R132H mutant IDH1 [6].
